Source: patent US20030086972A1, “Hydrogel-driven drug dosage form” (priority 2000, published 2003)
Converted amounts (≈) assume the structure as drawn. Counter-ions that a name gives are not always drawn. Like-named read-outs stand apart in the source and are kept apart here.

Legend:
[1] = Aqueous solubility of the drug
[2] = cited from earlier work

## 4-[3-[4-(2-methylimidazol-1 -yl) phenylthio]phenyl]-3,4,5,6-tetrahydro-2H-pyran-4-carboxamide hemifumarate [Drug 3]
[1]; pH 4
  solubility: 3.7 mgA/mL

## CN[C@H]1CC[C@@H](c2ccc(Cl)c(Cl)c2)c2ccccc21 [Drug 2, sertraline HCl]
[1]; aqueous, pH 7, aqueous buffer
  solubility: 200 µg/mL

## COc1cc2nc(N3CCCN(C(=O)N4CCOCC4)CC3)cc(N)c2c(-c2ccc(F)cc2)c1OC [Drug 5, 4-amino-5-(4-fluorophenyl)-6,7-dimethoxy-2-[4-(morpholinocarbonyl)perhydro-1,4-diazepin-1-yl]quinoline]
[1]; aqueous, pH 7.6, aqueous buffer
  solubility: 400 µg/mL (≈ 785 µM)

## CN[C@H]1CC[C@@H](c2ccc(Cl)c(Cl)c2)c2ccccc21 [sertraline]
[2]; low pH
  solubility (in words): moderate solubility
[2]; pH of about 7.5
  solubility (in words): extremely low solubility
[2]; pH values above 5
  solubility (in words): low solubility
